According to patent publication US9534008B2, “Small molecule compounds that control plant- and insect-pathogenic nematodes” (California Institute of Technology, priority 2011, dated 2017):

What was measured:
C. elegans dauer larvae = experiment: Dispersal assay, C. elegans dauer; assay type: in vivo; conditions: for dispersing nematodes, normalized to percent of the positive control response: physiological concentration, with 0.25% E. coli (HB101), positive control dauer conditioned medium; for substitution for ascr#2 in the C. elegans dispersal blend: in vivo
Experimental: C. elegans dauer juveniles were washed with MILLI-Q water 3 times, placed into 6 cm petri dishes with a small amount of water, and rested overnight. Approximately 200-300 nematodes in 10 μl of water were placed on an agar plate, to which 2 μl of treatment was added. The liquid culture that produced 60% dauer animals was centrifuged, filtered with a 0.45 μm filter, and used as a positive control for dispersal. Thereafter, media were lyophilized and resuspended in MILLI-Q water 5 times. 2 μl to 10 μl of nematode suspension was used for the assay. As a negative control, 0.5% E. coli (HB101) was prepared in S-complete, lyophilized, and adjusted to the final volume of 0.25% E. coli in the assay.
Nematodes were quantified using Image J software (Image Processing and Analysis in Java, National Institutes of Health). The number of nematodes visualized and counted using Image J is illustrated in FIG. 63B. Nematodes inside the circle were subtracted manually from the total number of worms counted because of the location of their placement. Each treatment was replicated 9-11 times. The graph was normalized to the positive control, the dauer conditioned medium.

C. elegans males = experiment: Attraction assay (long-range, point source); conditions: in vivo
Experimental: 10 cm standard chemotaxis plates were prepared (Bargmann et al., Cell 74:515-27 (1993), which is hereby incorporated by reference in its entirety) and stored at 4° C. until the day before use. Standard 1 cm-diameter copper pipes were sectioned into 1 cm-tall segments to use for the holding chambers. The females/hermaphrodites were isolated overnight, washed 3 times in M9 buffer, and then allowed to wander on a plate pre-conditioned with 50 uL of 1000× streptomycin for 2 hours to kill any bacteria that might produce a false positive attractant. The nematodes were then washed 3 times, and the supernatant from the last wash was placed in a copper chamber, as the control, 1 cm from the border of the 10 cm plate. The nematodes were suspended in M9 within the copper chamber, 1 cm from the border opposite the control chamber. After 6 hours, they were subsequently removed and replaced with 3 μL of 1M sodium azide. 100 C. elegans adult males were isolated overnight, washed several times in ddH2O, and placed at the center of the agar plate. After several hours, males paralyzed within 2 cm of each region were scored. The Chemotaxis Index (Bargmann et al., Cell 74:515-27 (1993), which is hereby incorporated by reference in its entirety) was then used to score male chemotaxis to either point source.

C. elegans [1] = experiment: Ascaroside function (Table 12), C. elegans; assay type: in vivo, Caenorhabditis elegans; set-up: key to Attract Females/Herm. / Promote Dauer Formation / Attract Males: A very strong result of affecting nematode behavior is designated in the table as “strong.”
Experimental: (§1) Various ascarosides and ascaroside blends were administered to various nematodes described below (Table 12). […] A very strong result of affecting nematode behavior is designated in the table as “strong.”

S. feltiae = experiment: Ascaroside function (Table 12), S. feltiae; assay type: in vivo, Steinernema feltiae
Experimental: as §1

C. elegans [2] = conditions: from 1 μM concentration; cited from earlier work
C. elegans [3] = conditions: in vivo; cited from earlier work
[4] = test system: several of the tested nematode species; experiment: Retention assay, across species; assay type: in vivo; conditions: 1 nM, 1 μM and 1 mM tested
Experimental: OP50 E. coli was grown on a standard 5 cm agar plate (made with standard Nematode Growth Medium). The bacterial lawn was 16 mm in diameter and was grown overnight at 20° C. before being used in trials. Two 4 mm spots (0.6 μL) were placed on opposite sides of the bacterial lawn (using a transparent template to guide spot placement), and several minutes elapsed for the liquid to settle in before placing nematodes down on the assay. Recording began immediately upon worm placement. 0.6 μL of the control was placed on one side of the lawn, and 0.6 μL of the experimental cue was placed on the other side of the lawn, changing the location of the cue throughout trials between left/right and top/bottom to avoid bias.
Nematodes were isolated by gender at the L4 stage the day before being used in trials as developed adults. Worms were evenly divided and placed at two points equidistant from the foci of the scoring region. Trials were recorded for 20 minutes, and frames were collected for analysis at 1 frame per second. Results were averaged from at least three different trials. For every nematode species in this study, a different total number of worms (using water in both scoring regions) was tested to determine the minimum number of worms necessary for consistent unbiased results over a 20 minute trial. The total number of worms used in the multiple species assays depended on that species' optimal parameters. 10 worms were used for P. redivivus males and females, 20 worms were used for C. elegans males and O. dolichuridae males, and 14 worms were used for S. glaseri males. The Automated Software was used to compare worm occupancy in each scoring region over time, and the Chemotaxis Index (Bargmann et al., Cell 74:515-27 (1993), which is hereby incorporated by reference in its entirety) was adapted to score preference or avoidance to each ascaroside.
A video camera attached to the microscope produced a digital video stream, which was then analyzed. The ratio of the time the average worm spent in each region of interest was calculated for every trial. For ease of implementation, all worms in a single experiment were assumed to be roughly the same size. Thus worm pixels were counted instead of whole worms, allowing fractions of a worm in the region of interest to be taken into account. It also eliminated the need for a shape-based worm identification algorithm, and allowed each frame to be analyzed independently. A band-pass filter was applied to each frame to eliminate the effect of uneven lighting and also accentuate the worms against the background. The worm was then identified after thresholding the filtered image. Throughout each experiment, the locations and sizes of the regions of interest were known. Through the filtering described above, it is known which pixels are occupied by worms and which ones are not. Thus, the ratio of worm-pixels to all pixels inside the region of interest can be calculated to produce the worm-occupancy ratio. This calculation was done for every frame, giving a plot output of worm-occupancy ratio vs. time for each region.

Panagrellus redivivus = experiment: Ascaroside function (Table 12), Panagrellus redivivus; assay type: in vivo
Experimental: as §1

S. glaseri = experiment: Ascaroside function (Table 12), S. glaseri; assay type: in vivo
Experimental: as §1

S. feltiae IJs = experiment: Dispersal assay, S. feltiae IJs; assay type: in vivo; conditions: physiologically relevant concentrations
Experimental: S. feltiae IJs were washed with MILLI-Q water three times and incubated in 6 cm petri dishes for […] with a small amount (4-5 ml) of MILLI-Q water. Nematodes were placed the following day on a 10.7 g/L agar with 1010 g/cm^2 gel strength (PhytoTechnology Lab. Shawnee Mission, Kans.). Nematode behavior was assayed on multiple plates with internal plate replicates to rule out the possibility that behavior was affected by plate composition. Approximately 300 IJs in 10 μl water were placed on an agar medium and the test compounds or extracts (1-2 μl) were placed into the nematode suspension. Upon absorption (˜15 minutes) of the liquid, the freely moving nematodes were video recorded for 5-10 minutes. Dispersal behavior is temperature and season dependent. During winter, the assay is effective at room temperature (22±1° C.). During summer, the assay requires a temperature controlled environment due to the effects on nematode behavior above 23° C.
For entomopathogenic nematodes (EPN), insect cadavers are known to promote dispersal behavior of the IJ stage (Shapiro-Ilan et al., J. Invertebr. Pathol. 83:270-72 (2003), which is hereby incorporated by reference in its entirety). An assay was therefore developed to identify compounds in consumed insect cadavers that promote dispersal. Approximately 300 IJs of S. feltiae in 10 μl of water were placed on an agar plate (FIG. 64B). […]

[5] = test system: Meloidogyne javanica, M. floridensis, M. incognita, M. hapla; experiment: Ascaroside function (Table 12), root-knot nematodes; assay type: in vivo, Meloidogyne spp.; conditions: Meloidogyne javanica, M. floridensis, M. incognita, M. hapla
Experimental: as §1

[6] = test system: Steinernema riobrave, S. diaprepesi, S carpocapse; experiment: Ascaroside function (Table 12), Steinernema riobrave group; assay type: in vivo, Steinernema spp.
Experimental: as §1

[7] = test system: Heterorhabditis bacteriophora, H. zealandica, H. floridensis; experiment: Ascaroside function (Table 12), Heterorhabditis; assay type: in vivo, Heterorhabditis spp.; conditions: Heterorhabditis bacteriophora, H. zealandica, H. floridensis
Experimental: as §1

What does the source list for `CC(=O)CCC[C@@H](C)O[C@@H]1O[C@@H](C)[C@H](O)C[C@H]1O` [ascr#2]?
dispersing nematodes, normalized to percent of the positive control response (C. elegans dauer larvae): 40%; C. elegans male chemotaxis to a point source (C. elegans males): chemotax towards; amount eliciting C. elegans male attraction from a distance (as low as) (C. elegans males): ≤ 500 attomol; Attract Males (C. elegans [1]): ascr#2; Dispersal (of dauer larvae, infectious juveniles) (C. elegans [1]): ascr#2; Promote Dauer Formation (C. elegans [1]): ([strong]); Dispersal (of dauer larvae, infectious juveniles) (S. feltiae): ascr#2; most active amount for attraction in C. elegans (C. elegans [2]): ~1 pmol; dauer-inducing activity (C. elegans [3]): promote dauer entry

For `C[C@H](CC/C=C/C(=O)Nc1ccc(C(=O)O)cc1)O[C@@H]1O[C@@H](C)[C@H](O)C[C@H]1O` [ascr#8], which “dispersing nematodes, normalized to percent of the positive control response” value (C. elegans dauer larvae) is on record?
The value was 50%.

And the “preference for areas conditioned by ascaroside” value [4]?
The value was “preferred”.

And the “C. elegans male chemotaxis to a point source” value (C. elegans males)?
Its value is “not active”.

What about the “Attract Males” value (C. elegans [1]) of the same compound?
The value was “ascr#8”.

And the “Dispersal (of dauer larvae, infectious juveniles)” value (C. elegans [1])?
The value was “ascr#8”.

What about the “Promote Dauer Formation” value (C. elegans [1]) of the same compound?
Its value is “([strong])”.

What about the “Attract Females/Herm.” value (Panagrellus redivivus) of the same compound?
The value was “ascr#8”.

And the “Attract Males” value (Panagrellus redivivus)?
The value was “ascr#8”.

What about the “Dispersal (of dauer larvae, infectious juveniles)” value (S. feltiae) of the same compound?
The value was “ascr#8”.

And the “Attract Males” value (S. glaseri)?
Its value is “ascr#8”.

And the dauer-inducing activity (C. elegans [3])?
The dauer-inducing activity was “promote dauer entry”.

For `C[C@H](CCC(=O)O)O[C@@H]1O[C@@H](C)[C@H](O)C[C@H]1O` [ascr#9], which “substitution for ascr#2 in the C. elegans dispersal blend” value (C. elegans dauer larvae) is on record?
The value was “can replace”.

And the “substitution for ascr#2 in the C. elegans dispersal blend” value (C. elegans dauer larvae; listed as Ascr#9)?
Its value is “able to substitute”.

And the “dispersal activity when tested alone” value (S. feltiae IJs)?
Its value is “did not have activity”.

What about the “preference for areas conditioned by ascaroside” value [4] of the same compound?
Its value is “preferred”.

And the “Attract Males” value (C. elegans [1])?
The value was “ascr#9”.

And the “Attract Males” value (Panagrellus redivivus)?
The value was “ascr#9”.

What about the “Dispersal (of dauer larvae, infectious juveniles)” value [5] of the same compound?
The value was “ascr#9”.

What about the “Repel Females/Herm.” value [5] of the same compound?
Its value is “ascr#9”.

What about the “Dispersal (of dauer larvae, infectious juveniles)” value [6] of the same compound?
Its value is “ascr#9”.

What about the “Dispersal (of dauer larvae, infectious juveniles)” value (S. feltiae) of the same compound?
The value was “ascr#9”.

And the “Dispersal (of dauer larvae, infectious juveniles)” value [7]?
The value was “ascr#9”.

With `C[C@H](CC(=O)O)O[C@@H]1O[C@@H](C)[C@H](O)C[C@H]1O` [ascr#11] as the compound, how does the “dispersal activity when tested alone” value (S. feltiae IJs) read?
The value was “did not have activity”.

And the “Dispersal (of dauer larvae, infectious juveniles)” value [6]?
The value was “ascr#11”.
